The source made the active and inactive calls. The rule behind the calls is not given here.
Columns and labels:
[1] = test system: Penicillium chrysogenum; experiment: Antimicrobial activity against Penicillium chrysogenum after 24 hrs; assay type: functional, organism-based
[2] = test system: Escherichia coli; experiment: Antimicrobial activity against Escherichia coli at 100 ug after 24 hrs; assay type: functional; details: read-out: IZ
[3] = test system: Saccharomyces cerevisiae; experiment: Antimicrobial activity against Saccharomyces cerevisiae cdc5 mutant at 100 ug after 24 hrs; assay type: functional; details: read-out: IZ
[4] = test system: Staphylococcus aureus; experiment: Antimicrobial activity against Staphylococcus aureus at 50 ug after 24 hrs; assay type: functional; details: read-out: IZ
[5] = test system: Escherichia coli; experiment: Antimicrobial activity against Escherichia coli at 50 ug after 24 hrs; assay type: functional; details: read-out: IZ
[6] = test system: Saccharomyces cerevisiae; experiment: Antimicrobial activity against Saccharomyces cerevisiae act1-1 mutant at 100 ug after 24 hrs; assay type: functional; details: read-out: IZ
[7] = test system: Bacillus subtilis; experiment: Antimicrobial activity against Bacillus subtilis at 100 ug after 24 hrs; assay type: functional; details: read-out: IZ
[8] = test system: Saccharomyces cerevisiae; experiment: Antimicrobial activity against Saccharomyces cerevisiae YAT2296 mutant at 100 ug after 24 hrs; assay type: functional; details: read-out: IZ
[9] = test system: Pseudomonas aeruginosa; experiment: Antimicrobial activity against Pseudomonas aeruginosa at 50 ug after 24 hrs; assay type: functional; details: read-out: IZ
[10] = test system: Saccharomyces cerevisiae; experiment: Antimicrobial activity against Saccharomyces cerevisiae YAT2296 mutant at 50 ug after 24 hrs; assay type: functional; details: read-out: IZ
[11] = test system: Saccharomyces cerevisiae; experiment: Antimicrobial activity against Saccharomyces cerevisiae GT160-45C at 100 ug after 24 hrs; assay type: functional; details: read-out: IZ
[12] = test system: Staphylococcus aureus; experiment: Antimicrobial activity against Staphylococcus aureus at 100 ug after 24 hrs; assay type: functional; details: read-out: IZ
[13] = test system: Umbelopsis ramanniana; experiment: Antimicrobial activity against Mortierella ramanniana after 24 hrs; assay type: functional, organism-based
[14] = test system: Saccharomyces cerevisiae; experiment: Antimicrobial activity against Saccharomyces cerevisiae cdc5 mutant at 50 ug after 24 hrs; assay type: functional; details: read-out: IZ
[15] = test system: Pseudomonas aeruginosa; experiment: Antimicrobial activity against Pseudomonas aeruginosa at 100 ug after 24 hrs; assay type: functional; details: read-out: IZ
[16] = test system: Candida albicans; experiment: Antimicrobial activity against Candida albicans at 100 ug after 24 hrs; assay type: functional; details: read-out: IZ
[17] = test system: Saccharomyces cerevisiae; experiment: Antimicrobial activity against Saccharomyces cerevisiae act1-1 mutant at 50 ug after 24 hrs; assay type: functional; details: read-out: IZ

## CC/C=C/C#C/C=C/C#CCCCC(=O)O
[1]
  Activity: inactive
[2]
  zone of inhibition at 100 µg/disc: 12 mm
[3]
  zone of inhibition at 100 µg/disc: 7.5 mm
[4]
  zone of inhibition at 50 µg/disc: 9.5 mm
[5]
  zone of inhibition at 50 µg/disc: 8.5 mm
[6]
  zone of inhibition at 100 µg/disc: 10 mm
[7]
  zone of inhibition at 100 µg/disc: 11 mm
[8]
  zone of inhibition at 100 µg/disc: 7 mm
[9]
  zone of inhibition at 50 µg/disc: 8.5 mm
[10]
  zone of inhibition at 50 µg/disc: 6.5 mm
[11]
  zone of inhibition at 100 µg/disc: 6.5 mm
[12]
  zone of inhibition at 100 µg/disc: 13.5 mm
[13]
  Activity: inactive
[14]
  zone of inhibition at 50 µg/disc: 7 mm
[15]
  zone of inhibition at 100 µg/disc: 13 mm
[16]
  zone of inhibition at 100 µg/disc: 8.5 mm
[17]
  zone of inhibition at 50 µg/disc: 9 mm
